These results are taken from patent US10981926B2 (Janssen Pharmaceutica NV, priority 2016, dated 2021).

The target in experiment [1] is T1, wild-type Androgen Receptor (AR-wt) (Homo sapiens (Human), UniProt P10275). As to the kind of experiment: LNCaP-AR-wt ANT reporter assay (antagonist mode). It counts as cell-based. Particulars: for Emax: read-out: LNCaP-AR-wt ANT MAX % Inh; for IC50 / LNCaP-AR-wt ANT pIC50: pIC50 = −Log10(IC50 in Molar); for IC50: read-out: LNCaP-AR-wt ANT pIC50 (converted). Background: In a reporter assay the amount or activity of a reporter protein is the signal.
T1 sequence (P10275 whole entry): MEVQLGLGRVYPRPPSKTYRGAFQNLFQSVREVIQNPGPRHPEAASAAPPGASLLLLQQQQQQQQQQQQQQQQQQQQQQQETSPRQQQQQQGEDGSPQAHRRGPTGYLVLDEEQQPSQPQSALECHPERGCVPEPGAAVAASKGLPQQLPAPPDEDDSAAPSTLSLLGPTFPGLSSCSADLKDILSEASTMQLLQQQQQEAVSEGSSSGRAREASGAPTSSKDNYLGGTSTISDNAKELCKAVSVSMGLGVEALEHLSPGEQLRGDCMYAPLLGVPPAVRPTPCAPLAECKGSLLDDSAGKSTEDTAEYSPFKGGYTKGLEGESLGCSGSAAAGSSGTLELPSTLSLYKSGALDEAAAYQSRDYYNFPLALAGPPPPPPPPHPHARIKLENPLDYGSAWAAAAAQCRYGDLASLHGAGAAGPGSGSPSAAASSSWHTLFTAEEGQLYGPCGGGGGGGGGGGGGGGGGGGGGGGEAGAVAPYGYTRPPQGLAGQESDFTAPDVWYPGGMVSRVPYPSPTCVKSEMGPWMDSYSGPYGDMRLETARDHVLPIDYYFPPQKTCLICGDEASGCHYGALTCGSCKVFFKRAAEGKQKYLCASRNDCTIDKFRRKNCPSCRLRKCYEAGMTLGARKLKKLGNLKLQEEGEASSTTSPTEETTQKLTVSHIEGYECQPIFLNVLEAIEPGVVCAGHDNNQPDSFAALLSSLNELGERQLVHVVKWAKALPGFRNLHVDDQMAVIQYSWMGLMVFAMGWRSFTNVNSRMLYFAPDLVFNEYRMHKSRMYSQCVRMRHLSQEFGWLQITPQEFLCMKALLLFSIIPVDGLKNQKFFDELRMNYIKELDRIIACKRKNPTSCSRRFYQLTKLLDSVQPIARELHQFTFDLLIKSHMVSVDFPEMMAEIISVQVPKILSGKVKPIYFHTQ

The target of experiment [2] is T1, wild-type Androgen Receptor (AR-wt). Description: LNCaP-AR-wt AG reporter assay (agonist mode). In kind it is cell-based. Particulars: for Emax: read-out: LNCaP-AR-wt AG MAX % Stim; for EC50: pEC50 = −Log10(EC50 in Molar), read-out: LNCaP-AR-wt AG pEC50 (converted).
Experiment [3] concerns the target T2, F876L mutant Androgen Receptor (AR-F876L) (Homo sapiens (Human), UniProt P10275, F877L). As to the kind of experiment: LNCaP-AR-F876L ANT reporter assay (antagonist mode). Particulars: for Emax: read-out: LNCaP-AR-F876L ANT MAX % Inh; for IC50 / LNCaP-AR-F876L ANT pIC50: pIC50 = −Log10(IC50 in Molar); for IC50: read-out: LNCaP-AR-F876L ANT pIC50 (converted). In kind it is cell-based.

Experiment [4] deals with T2, F876L mutant Androgen Receptor (AR-F876L). Description: LNCaP-AR-F876L AG reporter assay (agonist mode). In kind it is cell-based. The note with it: for Emax: read-out: LNCaP-AR-F876L AG MAX % Stim; for EC50: pEC50 = −Log10(EC50 in Molar), read-out: LNCaP-AR-F876L AG pEC50 (converted).
Another experiment relates to rGABA-gated Cl− channel. As to the kind of experiment: GABA-Gated Cl Channel Antagonist Radioligand Binding Assay. Particulars: 10 μM single point, [35S]-TBPS, cerebral cortex membrane homogenates. Also noted: species or system rat. In outline: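 Rat cerebral cortex membranes (120 μg protein) incubated 120 min at 22° C with 3 nM […] in 50 mM Na2HPO4/KH2PO4 pH 7.4, 500 mM NaCl; nonspecific binding defined with 20 μM picrotoxinin. Bound label counted after filtration; values are percent inhibition of specific binding at 10 μM compound.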

[5] abbreviates: antagonist mode, maximum % inhibition of R1881 control response over tested concentration range.
Setting [6] is: agonist mode, maximum % stimulation over tested concentration range.
Setting [7] is: maximum % inhibition of R1881 control response over the tested concentration range.
Setting [8] is: maximum % stimulation (agonist response) over the tested concentration range.

T2 sequence (P10275 whole entry F877L): as the sequence (P10275 whole entry) above, with F877L counted along it

As to `N#Cc1ncc(N2C(=O)C3(CCC3)N(c3ccc(CC4CCNCC4)cc3)C2=S)cc1C(F)(F)F` [Cpd 234, 5-[5-oxo-8-[4-(4-piperidylmethyl)phenyl]-7-thioxo-6,8-diazaspiro[3.4]octan-6-yl]-3-(trifluoromethyl)pyridine-2-carbonitrile], the Emax came out at 100% in experiment [1] (setting [5]), 0.1% in experiment [2] (setting [6]), 102% in experiment [3] (setting [5]) and 0% in experiment [4] (setting [6]). Further, the IC50 was 479 nM in experiment [1] (antagonist mode) and 257 nM in experiment [3] (antagonist mode). Further, the EC50 in experiment [2] (agonist mode) and in experiment [4] (agonist mode) was more than 15100 nM throughout. Moreover, the “rGABA-gated Cl− channel % inh @10 μM” value in the experiment with rGABA-gated Cl− channel is given as 57.4%.
With `COC(=O)CN1CCC(Oc2ccc(N3C(=S)N(c4cnc(C#N)c(C(F)(F)F)c4)C(=O)C34CCC4)cc2)CC1` [Cpd 33, methyl 2-[4-[4-[6-[6-cyano-5-(trifluoromethyl)-3-pyridyl]-5-oxo-7-thioxo-6,8-diazaspiro[3.4]octan-8-yl]phenoxy]-1-piperidyl]acetate], the values for the IC50 in experiment [1] (antagonist mode) and in experiment [3] (antagonist mode) were 708 nM and 389 nM, respectively. For the same compound, the Emax in experiment [1] (setting [7]) was determined as 98.9%; in experiment [2] (setting [8]) it was 0.2%; in experiment [3] (setting [7]), 98.2%; in experiment [4] (setting [8]), 2.8%. Also, the EC50 in experiment [2] (agonist mode) and in experiment [4] (agonist mode) was more than 15100 nM in each case. The “rGABA-gated Cl− channel % inh @10 μM” value with rGABA-gated Cl− channel is reported as 99.2%.
Consider `N#Cc1ncc(N2C(=O)C3(CCC3)N(c3ccc(CN4CCNCC4)cc3)C2=S)cc1C(F)(F)F` [Cpd 48, 5-[5-oxo-8-[4-(piperazin-1-ylmethyl)phenyl]-7-thioxo-6,8-diazaspiro[3.4]octan-6-yl]-3-(trifluoromethyl)pyridine-2-carbonitrile], for which the “LNCaP-AR-wt ANT pIC50” value in experiment [1] (antagonist mode) worked out at 6.45. Moreover, the Emax is 102% in experiment [1] (setting [7]), 0% in experiment [2] (setting [8]), 100% in experiment [3] (setting [7]) and 0.2% in experiment [4] (setting [8]). The EC50 in experiment [2] (agonist mode) and in experiment [4] (agonist mode) was more than 15100 nM throughout. Besides, the “LNCaP-AR-F876L ANT pIC50” value in experiment [3] (antagonist mode) was 6.69. The “rGABA-gated Cl− channel % inh @10 μM” value in the experiment with rGABA-gated Cl− channel is reported as 37.2%.
Turning to `N#Cc1ncc(N2C(=O)C3(CCC3)N(c3ccc(OCCN4CC5(C4)CC(F)(F)C5)cc3)C2=S)cc1C(F)(F)F` [Cpd 83, 5-[8-[4-[2-(2,2-difluoro-6-azaspiro[3.3]heptan-6-yl)ethoxy]phenyl]-5-oxo-7-thioxo-6,8-diazaspiro[3.4]octan-6-yl]-3-(trifluoromethyl)pyridine-2-carbonitrile], the IC50 in experiment [1] (antagonist mode) is 229 nM; in experiment [3] (antagonist mode), 129 nM. Further, the Emax in experiment [1] (setting [7]) was 102%; in experiment [2] (setting [8]) it was -0.2%; in experiment [3] (setting [7]) it was 99%; in experiment [4] (setting [8]), 0.2%. Besides, the EC50 in experiment [2] (agonist mode) and in experiment [4] (agonist mode) was more than 15100 nM in each case. Moreover, the “rGABA-gated Cl− channel % inh @10 μM” value in the experiment with rGABA-gated Cl− channel came out at 20.5%.
Turning to `CN1CCC(Oc2ccc(N3C(=S)N(c4cnc(C#N)c(Cl)c4)C(=O)C34CCC4)cc2)CC1` [Cpd 24, 3-chloro-5-[8-[4-[(1-methyl-4-piperidyl)oxy]phenyl]-5-oxo-7-thioxo-6,8-diazaspiro[3.4]octan-6-yl]pyridine-2-carbonitrile], the IC50 is 170 nM in experiment [1] (antagonist mode) and 83.2 nM in experiment [3] (antagonist mode). Moreover, the Emax stood at 101% in experiment [1] (setting [7]), 0.6% in experiment [2] (setting [8]), 101% in experiment [3] (setting [7]) and 0.5% in experiment [4] (setting [8]). Moreover, the EC50 in experiment [2] (agonist mode) and in experiment [4] (agonist mode) was more than 15100 nM throughout. In addition, in the experiment on rGABA-gated Cl− channel, the “rGABA-gated Cl− channel % inh @10 μM” value worked out at 25.4%.
Consider `CC(C)(C)CCN1CCC(Oc2ccc(N3C(=S)N(c4cnc(C#N)c(C(F)(F)F)c4)C(=O)C34CCC4)cc2)CC1` [Cpd 34, 5-(5-(4-((1-(3,3-dimethylbutyl)piperidin-4-yl)oxy)phenyl)-8-oxo-6-thioxo-5,7-diazaspiro[3.4]octan-7-yl)-3-(trifluoromethyl)picolinonitrile], for which the IC50 in experiment [1] (antagonist mode) was 3310 nM; in experiment [3] (antagonist mode), 1260 nM. The Emax was 82.7% in experiment [1] (setting [7]), -0.4% in experiment [2] (setting [8]), 89.7% in experiment [3] (setting [7]) and 0.2% in experiment [4] (setting [8]). Besides, the EC50 in experiment [2] (agonist mode) and in experiment [4] (agonist mode) was more than 15100 nM in each case. In addition, the “rGABA-gated Cl− channel % inh @10 μM” value with rGABA-gated Cl− channel amounted to 91.2%.
On to `N#Cc1ncc(N2C(=O)C3(CCC3)N(c3ccc4nn(CCO)cc4c3)C2=S)cc1Cl` [Cpd 162, 3-chloro-5-[8-[2-(2-hydroxyethyl)indazol-5-yl]-5-oxo-7-thioxo-6,8-diazaspiro[3.4]octan-6-yl]pyridine-2-carbonitrile], for which the figures for the IC50 in experiment [1] (antagonist mode) and in experiment [3] (antagonist mode) were 324 nM and 158 nM, respectively. Also, the Emax is 96.4% in experiment [1] (setting [7]), -0.1% in experiment [2] (setting [8]), 99.2% in experiment [3] (setting [7]) and 0% in experiment [4] (setting [8]). Moreover, the EC50 in experiment [2] (agonist mode) and in experiment [4] (agonist mode) was more than 15100 nM in each case. Besides, in the experiment on rGABA-gated Cl− channel, the “rGABA-gated Cl− channel % inh @10 μM” value amounted to 48.5%.
As to `COc1cc(N2C(=O)C3(CCC3)N(c3ccc(OC4CCNCC4)cc3)C2=S)cnc1C#N` [Cpd 154, 3-methoxy-5-[5-oxo-8-[4-(4-piperidyloxy)phenyl]-7-thioxo-6,8-diazaspiro[3.4]octan-6-yl]pyridine-2-carbonitrile], the values for the IC50 in experiment [1] (antagonist mode) and in experiment [3] (antagonist mode) were 468 nM and 269 nM, respectively. Besides, the Emax in experiment [1] (setting [7]) is 102%; in experiment [2] (setting [8]) it was -0.1%; in experiment [3] (setting [7]), 100%; in experiment [4] (setting [8]), -0.1%. The EC50 in experiment [2] (agonist mode) and in experiment [4] (agonist mode) was more than 15100 nM each time. In the experiment with rGABA-gated Cl− channel, the “rGABA-gated Cl− channel % inh @10 μM” value is recorded as −22.2%.
Turning to `N#Cc1ncc(N2C(=O)C3(CCC3)N(c3ccc(C4=C[C@@H](O)[C@H](O)CO4)cc3)C2=S)cc1C(F)(F)F` [Cpd 112, 5-(5-(4-((3R,4R)-3,4-dihydroxy-3,4-dihydro-2H-pyran-6-yl)phenyl)-8-oxo-6-thioxo-5,7-diazaspiro[3.4]octan-7-yl)-3-(trifluoromethyl)picolinonitrile], the figures for the IC50 in experiment [1] (antagonist mode) and in experiment [3] (antagonist mode) were 269 nM and 282 nM, respectively. The Emax in experiment [1] (setting [7]) came to 102%; in experiment [2] (setting [8]), 0.3%; in experiment [3] (setting [7]), 100%; in experiment [4] (setting [8]), 0.2%. Moreover, the EC50 in experiment [2] (agonist mode) and in experiment [4] (agonist mode) was more than 15100 nM in each case. In addition, in the experiment on rGABA-gated Cl− channel, the “rGABA-gated Cl− channel % inh @10 μM” value amounted to 99.1%.
Take `N#Cc1ncc(N2C(=O)C3(CCC3)N(c3ccc(OC4CCN(CCF)CC4)cc3)C2=S)cc1C(F)(F)F` [Cpd 77, 5-[8-[4-[[1-(2-fluoroethyl)-4-piperidyl]oxy]phenyl]-5-oxo-7-thioxo-6,8-diazaspiro[3.4]octan-6-yl]-3-(trifluoromethyl)pyridine-2-carbonitrile]: the IC50 was 37.2 nM in experiment [1] (antagonist mode) and 30.9 nM in experiment [3] (antagonist mode). Moreover, the Emax in experiment [1] (setting [7]) stood at 102%; in experiment [2] (setting [8]), 0.2%; in experiment [3] (setting [7]), 100%; in experiment [4] (setting [8]), 0.3%. Further, the EC50 in experiment [2] (agonist mode) and in experiment [4] (agonist mode) was more than 15100 nM each time. Further, the “rGABA-gated Cl− channel % inh @10 μM” value with rGABA-gated Cl− channel amounted to 53.8%.
For the compound `CN1CC(Oc2ccc(N3C(=S)N(c4cnc(C#N)c(C(F)(F)F)c4)C(=O)C34CCC4)cc2)C1` [Cpd 84, 5-[8-[4-(1-methylazetidin-3-yl)oxyphenyl]-5-oxo-7-thioxo-6,8-diazaspiro[3.4]octan-6-yl]-3-(trifluoromethyl)pyridine-2-carbonitrile], the IC50 in experiment [1] (antagonist mode) is 525 nM; in experiment [3] (antagonist mode), 81.3 nM. Moreover, the Emax in experiment [1] (setting [7]) turned out to be 101%; in experiment [2] (setting [8]), 0.2%; in experiment [3] (setting [7]) it was 101%; in experiment [4] (setting [8]), 0.1%. The EC50 in experiment [2] (agonist mode) and in experiment [4] (agonist mode) was more than 15100 nM throughout. The “rGABA-gated Cl− channel % inh @10 μM” value with rGABA-gated Cl− channel amounted to 21.9%.
For `N#Cc1ncc(N2C(=O)C3(CCC3)N(c3ccc(OC4CCNCC4)cc3)C2=S)cc1Cl` [Cpd 44, 3-chloro-5-[5-oxo-8-[4-(4-piperidyloxy)phenyl]-7-thioxo-6,8-diazaspiro[3.4]octan-6-yl]pyridine-2-carbonitrile], the “LNCaP-AR-wt ANT pIC50” value in experiment [1] (antagonist mode) stood at 7.12. For the same compound, the Emax in experiment [1] (setting [7]) was 98.8%; in experiment [2] (setting [8]), 0.7%; in experiment [3] (setting [7]), 101%; in experiment [4] (setting [8]) it was 0.1%. The EC50 in experiment [2] (agonist mode) and in experiment [4] (agonist mode) was more than 15100 nM in each case. In addition, the “LNCaP-AR-F876L ANT pIC50” value in experiment [3] (antagonist mode) stood at 7.43. In the experiment on rGABA-gated Cl− channel, the “rGABA-gated Cl− channel % inh @10 μM” value is reported as −0.5%.
